Test results: ChEMBL document CHEMBL4507280 (2021)

How the values were obtained:
[1] = target: Rhodopsin kinase GRK1 (Homo sapiens) (UniProt Q15835); details: Compound concentration 1000.0 nM
[2] = target: Ephrin type-A receptor 3 (Homo sapiens) (UniProt P29320); details: Compound concentration 1000.0 nM
[3] = target: Serine/threonine-protein kinase Nek11 (Homo sapiens) (UniProt Q8NG66); details: Compound concentration 1000.0 nM
[4] = target: Macrophage colony-stimulating factor 1 receptor (Homo sapiens) (UniProt P07333); details: Compound concentration 1000.0 nM
Sequence of Macrophage colony-stimulating factor 1 receptor (Homo sapiens) (P07333 whole entry): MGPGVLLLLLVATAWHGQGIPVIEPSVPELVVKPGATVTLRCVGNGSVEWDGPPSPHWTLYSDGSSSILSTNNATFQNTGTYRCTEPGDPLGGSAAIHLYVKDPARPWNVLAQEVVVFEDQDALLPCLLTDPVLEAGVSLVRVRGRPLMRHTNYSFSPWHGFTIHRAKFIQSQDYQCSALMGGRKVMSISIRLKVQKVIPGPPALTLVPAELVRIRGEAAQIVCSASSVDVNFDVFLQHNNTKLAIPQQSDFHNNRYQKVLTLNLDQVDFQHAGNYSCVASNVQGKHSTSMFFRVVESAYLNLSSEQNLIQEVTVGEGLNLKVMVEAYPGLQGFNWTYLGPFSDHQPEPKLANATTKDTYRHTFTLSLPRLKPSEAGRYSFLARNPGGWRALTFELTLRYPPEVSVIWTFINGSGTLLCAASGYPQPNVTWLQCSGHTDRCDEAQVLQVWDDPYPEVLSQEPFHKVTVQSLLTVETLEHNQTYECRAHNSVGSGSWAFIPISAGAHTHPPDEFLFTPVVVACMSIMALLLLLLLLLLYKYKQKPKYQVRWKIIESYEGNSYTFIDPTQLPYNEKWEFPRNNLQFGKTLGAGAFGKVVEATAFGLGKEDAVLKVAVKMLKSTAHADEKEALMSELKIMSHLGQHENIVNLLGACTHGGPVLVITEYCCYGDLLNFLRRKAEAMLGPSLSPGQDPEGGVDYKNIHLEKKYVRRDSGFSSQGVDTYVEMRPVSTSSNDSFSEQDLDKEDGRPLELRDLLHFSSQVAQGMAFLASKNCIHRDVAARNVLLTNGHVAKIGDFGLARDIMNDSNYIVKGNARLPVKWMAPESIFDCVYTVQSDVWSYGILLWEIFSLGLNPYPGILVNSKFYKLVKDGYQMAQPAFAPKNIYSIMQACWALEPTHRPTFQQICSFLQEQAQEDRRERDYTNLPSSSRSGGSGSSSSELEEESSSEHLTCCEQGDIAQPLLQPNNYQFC

[5] = target: Serine/threonine-protein kinase VRK2 (Homo sapiens) (UniProt Q86Y07); details: Compound concentration 1000.0 nM
[6] = system: Receptor-type tyrosine-protein kinase FLT3 (Homo sapiens), P36888 [N841I]; details: Compound concentration 1000.0 nM
[7] = system: Tyrosine-protein kinase ABL1 (Homo sapiens), P00519 [M351T]; details: Compound concentration 1000.0 nM
[8] = target: Serine/threonine-protein kinase 33 (Homo sapiens) (UniProt Q9BYT3); details: Compound concentration 1000.0 nM
[9] = target: Tyrosine-protein kinase SYK (Homo sapiens) (UniProt P43405); details: Compound concentration 1000.0 nM
[10] = target: 5'-AMP-activated protein kinase catalytic subunit alpha-2 (Homo sapiens) (UniProt P54646); details: Compound concentration 1000.0 nM
[11] = system: Tyrosine-protein kinase ABL1 (Homo sapiens), P00519 [H396P]; details: Compound concentration 1000.0 nM
[12] = target: Tyrosine-protein kinase HCK (Homo sapiens) (UniProt P08631); details: Compound concentration 1000.0 nM
[13] = system: Proto-oncogene tyrosine-protein kinase receptor Ret (Homo sapiens), P07949 [V804M]; details: Compound concentration 1000.0 nM
Sequence of Proto-oncogene tyrosine-protein kinase receptor Ret (Homo sapiens), P07949 [V804M] (P07949 whole entry V804M): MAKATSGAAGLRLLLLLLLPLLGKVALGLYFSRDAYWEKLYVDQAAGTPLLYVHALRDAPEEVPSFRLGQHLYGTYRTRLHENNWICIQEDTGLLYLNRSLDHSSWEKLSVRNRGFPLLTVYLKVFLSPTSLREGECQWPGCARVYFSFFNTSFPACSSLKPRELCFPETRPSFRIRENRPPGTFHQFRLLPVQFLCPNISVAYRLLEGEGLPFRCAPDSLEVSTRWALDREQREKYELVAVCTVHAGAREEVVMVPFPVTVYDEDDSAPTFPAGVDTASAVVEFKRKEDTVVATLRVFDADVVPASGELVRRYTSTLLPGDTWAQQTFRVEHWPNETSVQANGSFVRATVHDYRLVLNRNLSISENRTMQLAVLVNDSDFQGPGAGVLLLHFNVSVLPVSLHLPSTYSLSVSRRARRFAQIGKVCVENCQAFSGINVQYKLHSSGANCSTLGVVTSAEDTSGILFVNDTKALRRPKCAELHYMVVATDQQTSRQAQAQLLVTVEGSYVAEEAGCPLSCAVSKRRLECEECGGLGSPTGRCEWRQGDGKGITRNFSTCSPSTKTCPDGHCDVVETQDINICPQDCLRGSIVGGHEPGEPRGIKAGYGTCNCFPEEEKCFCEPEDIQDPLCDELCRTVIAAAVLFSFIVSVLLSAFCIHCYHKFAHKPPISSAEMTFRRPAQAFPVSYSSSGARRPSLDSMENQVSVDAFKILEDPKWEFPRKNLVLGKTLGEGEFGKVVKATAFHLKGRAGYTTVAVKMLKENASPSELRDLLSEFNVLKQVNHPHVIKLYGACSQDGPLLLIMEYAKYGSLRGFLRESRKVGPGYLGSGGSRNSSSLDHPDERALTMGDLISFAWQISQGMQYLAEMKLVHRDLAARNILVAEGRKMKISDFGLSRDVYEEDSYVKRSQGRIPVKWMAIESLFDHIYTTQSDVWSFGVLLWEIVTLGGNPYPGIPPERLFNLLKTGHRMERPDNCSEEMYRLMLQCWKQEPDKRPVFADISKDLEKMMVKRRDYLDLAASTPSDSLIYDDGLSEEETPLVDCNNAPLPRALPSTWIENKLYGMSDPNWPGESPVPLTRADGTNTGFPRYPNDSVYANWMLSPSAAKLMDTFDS

[14] = target: Non-receptor tyrosine-protein kinase TYK2 (Homo sapiens) (UniProt P29597); details: Compound concentration 1000.0 nM
[15] = target: Proto-oncogene tyrosine-protein kinase ROS (Homo sapiens) (UniProt P08922); details: Compound concentration 1000.0 nM
[16] = target: Dual specificity mitogen-activated protein kinase kinase 4 (Homo sapiens) (UniProt P45985); details: Compound concentration 1000.0 nM
[17] = target: Mitogen-activated protein kinase kinase kinase 11 (Homo sapiens) (UniProt Q16584); details: Compound concentration 1000.0 nM
[18] = target: MAP/microtubule affinity-regulating kinase 3 (Homo sapiens) (UniProt P27448); details: Compound concentration 1000.0 nM
[19] = target: Cyclin-dependent kinase-like 1 (Homo sapiens) (UniProt Q00532); details: Compound concentration 1000.0 nM
[20] = system: Epidermal growth factor receptor (Homo sapiens), P00533 [L861Q]; details: Compound concentration 1000.0 nM
[21] = target: Myosin-IIIa (Homo sapiens) (UniProt Q8NEV4); details: Compound concentration 1000.0 nM
Sequence of Myosin-IIIa (Homo sapiens) (Q8NEV4 whole entry): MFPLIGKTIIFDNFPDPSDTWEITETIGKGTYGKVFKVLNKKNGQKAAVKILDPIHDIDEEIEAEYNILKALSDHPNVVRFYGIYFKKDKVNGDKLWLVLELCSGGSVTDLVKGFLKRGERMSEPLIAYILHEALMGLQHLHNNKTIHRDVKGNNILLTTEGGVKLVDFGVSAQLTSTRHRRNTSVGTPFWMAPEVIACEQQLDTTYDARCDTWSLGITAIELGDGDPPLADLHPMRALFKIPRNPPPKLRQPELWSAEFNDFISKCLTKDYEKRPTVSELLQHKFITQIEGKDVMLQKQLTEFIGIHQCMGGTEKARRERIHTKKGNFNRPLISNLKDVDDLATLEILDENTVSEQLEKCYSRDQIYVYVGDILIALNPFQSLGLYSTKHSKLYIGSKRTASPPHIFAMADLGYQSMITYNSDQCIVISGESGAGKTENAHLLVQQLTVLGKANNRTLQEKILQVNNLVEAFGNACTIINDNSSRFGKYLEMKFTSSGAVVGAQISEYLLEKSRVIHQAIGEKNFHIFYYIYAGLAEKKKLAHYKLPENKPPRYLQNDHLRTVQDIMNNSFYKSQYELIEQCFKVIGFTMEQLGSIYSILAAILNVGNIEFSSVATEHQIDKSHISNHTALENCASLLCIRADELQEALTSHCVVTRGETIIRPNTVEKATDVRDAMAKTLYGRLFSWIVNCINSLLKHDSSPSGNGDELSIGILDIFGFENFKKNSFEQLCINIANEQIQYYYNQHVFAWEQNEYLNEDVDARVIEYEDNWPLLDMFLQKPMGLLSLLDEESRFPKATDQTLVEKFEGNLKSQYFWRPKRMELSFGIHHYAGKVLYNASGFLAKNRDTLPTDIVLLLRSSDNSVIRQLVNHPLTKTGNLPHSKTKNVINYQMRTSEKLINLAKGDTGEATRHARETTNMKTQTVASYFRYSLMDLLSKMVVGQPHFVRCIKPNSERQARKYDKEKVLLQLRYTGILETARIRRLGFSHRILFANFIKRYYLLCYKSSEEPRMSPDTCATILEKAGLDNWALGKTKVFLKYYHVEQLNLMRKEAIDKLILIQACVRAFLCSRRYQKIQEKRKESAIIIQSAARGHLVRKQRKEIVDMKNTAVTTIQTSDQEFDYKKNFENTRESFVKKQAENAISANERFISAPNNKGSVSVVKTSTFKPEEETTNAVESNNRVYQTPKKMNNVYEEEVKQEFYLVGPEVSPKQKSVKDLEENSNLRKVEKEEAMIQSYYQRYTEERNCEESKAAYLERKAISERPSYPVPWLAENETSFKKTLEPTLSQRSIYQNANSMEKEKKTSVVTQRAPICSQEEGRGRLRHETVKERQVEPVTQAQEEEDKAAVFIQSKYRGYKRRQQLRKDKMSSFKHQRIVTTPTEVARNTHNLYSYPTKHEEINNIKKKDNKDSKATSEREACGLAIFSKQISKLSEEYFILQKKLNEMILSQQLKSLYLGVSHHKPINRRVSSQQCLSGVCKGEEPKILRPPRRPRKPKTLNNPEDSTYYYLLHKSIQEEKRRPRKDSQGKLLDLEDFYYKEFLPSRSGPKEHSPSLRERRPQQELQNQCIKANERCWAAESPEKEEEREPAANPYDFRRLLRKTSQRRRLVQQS

[22] = system: Epidermal growth factor receptor (Homo sapiens), P00533 [T790M]; details: Compound concentration 1000.0 nM
[23] = target: Tyrosine-protein kinase Mer (Homo sapiens) (UniProt Q12866); details: Compound concentration 1000.0 nM
[24] = target: Vascular endothelial growth factor receptor 3 (Homo sapiens) (UniProt P35916); details: Compound concentration 1000.0 nM
[25] = target: Ribosomal protein S6 kinase alpha-3 (Homo sapiens) (UniProt P51812); details: Compound concentration 1000.0 nM
[26] = target: Activin receptor type-1-like (Homo sapiens) (UniProt P37023); details: Compound concentration 1000.0 nM
[27] = target: Calcium/calmodulin-dependent protein kinase type II subunit beta (Homo sapiens) (UniProt Q13554); details: Compound concentration 1000.0 nM
[28] = target: Serine/threonine-protein kinase MAK (Homo sapiens) (UniProt P20794); details: Compound concentration 1000.0 nM
[29] = target: 5-hydroxytryptamine receptor 6 (Homo sapiens) (UniProt P50406); details: Compound concentration 10.0 uM
[30] = target: Serine/threonine-protein kinase tousled-like 1 (Homo sapiens) (UniProt Q9UKI8); details: Compound concentration 1000.0 nM
[31] = target: Cyclin-dependent kinase 13 (Homo sapiens) (UniProt Q14004); details: Compound concentration 1000.0 nM
[32] = target: Mast/stem cell growth factor receptor Kit (Homo sapiens) (UniProt P10721); details: Compound concentration 1000.0 nM
[33] = target: Beta-adrenergic receptor kinase 1 (Homo sapiens) (UniProt P25098); details: Compound concentration 1000.0 nM
[34] = target: Cyclin-dependent kinase 4 (Homo sapiens) (UniProt P11802); details: Compound concentration 1000.0 nM
[35] = system: Tyrosine-protein kinase ABL1 (Homo sapiens), P00519 [Q252H]; details: Compound concentration 1000.0 nM
[36] = target: Protein-tyrosine kinase 2-beta (Homo sapiens) (UniProt Q14289); details: Compound concentration 1000.0 nM
[37] = target: Cyclin-dependent kinase 2 (Homo sapiens) (UniProt P24941); details: Compound concentration 1000.0 nM
[38] = target: Serine/threonine-protein kinase PAK 3 (Homo sapiens) (UniProt O75914); details: Compound concentration 1000.0 nM
Sequence of Serine/threonine-protein kinase PAK 3 (Homo sapiens) (O75914 whole entry, looked up): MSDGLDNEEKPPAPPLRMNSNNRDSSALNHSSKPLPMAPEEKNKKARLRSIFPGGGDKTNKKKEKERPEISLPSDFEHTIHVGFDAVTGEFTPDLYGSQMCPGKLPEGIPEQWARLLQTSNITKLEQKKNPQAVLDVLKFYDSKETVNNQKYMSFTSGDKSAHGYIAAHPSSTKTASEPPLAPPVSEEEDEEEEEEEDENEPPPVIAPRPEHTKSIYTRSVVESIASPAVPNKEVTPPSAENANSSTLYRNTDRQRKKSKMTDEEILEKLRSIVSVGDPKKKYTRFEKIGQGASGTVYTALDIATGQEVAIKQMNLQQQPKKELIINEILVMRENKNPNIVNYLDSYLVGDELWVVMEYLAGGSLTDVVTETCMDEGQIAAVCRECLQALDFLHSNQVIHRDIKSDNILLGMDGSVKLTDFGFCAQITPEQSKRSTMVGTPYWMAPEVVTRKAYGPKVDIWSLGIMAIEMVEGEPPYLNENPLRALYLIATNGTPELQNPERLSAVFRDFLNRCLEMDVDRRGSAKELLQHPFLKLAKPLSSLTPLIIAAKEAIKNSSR

[39] = system: Hepatocyte growth factor receptor (Homo sapiens), P08581 [Y1235D]; details: Compound concentration 1000.0 nM
[40] = target: Inhibitor of nuclear factor kappa-B kinase subunit alpha (Homo sapiens) (UniProt O15111); details: Compound concentration 1000.0 nM
[41] = target: Interferon-induced, double-stranded RNA-activated protein kinase (Homo sapiens) (UniProt P19525); details: Compound concentration 1000.0 nM
[42] = target: Beta-2 adrenergic receptor (Homo sapiens) (UniProt P07550); details: Compound concentration 10.0 uM
[43] = target: Mitogen-activated protein kinase 10 (Homo sapiens) (UniProt P53779); details: Compound concentration 1000.0 nM
[44] = target: Protein-tyrosine kinase 6 (Homo sapiens) (UniProt Q13882); details: Compound concentration 1000.0 nM
[45] = target: Cyclin-dependent kinase 11B (Homo sapiens) (UniProt P21127); details: Compound concentration 1000.0 nM
Sequence of Cyclin-dependent kinase 11B (Homo sapiens) (P21127 whole entry): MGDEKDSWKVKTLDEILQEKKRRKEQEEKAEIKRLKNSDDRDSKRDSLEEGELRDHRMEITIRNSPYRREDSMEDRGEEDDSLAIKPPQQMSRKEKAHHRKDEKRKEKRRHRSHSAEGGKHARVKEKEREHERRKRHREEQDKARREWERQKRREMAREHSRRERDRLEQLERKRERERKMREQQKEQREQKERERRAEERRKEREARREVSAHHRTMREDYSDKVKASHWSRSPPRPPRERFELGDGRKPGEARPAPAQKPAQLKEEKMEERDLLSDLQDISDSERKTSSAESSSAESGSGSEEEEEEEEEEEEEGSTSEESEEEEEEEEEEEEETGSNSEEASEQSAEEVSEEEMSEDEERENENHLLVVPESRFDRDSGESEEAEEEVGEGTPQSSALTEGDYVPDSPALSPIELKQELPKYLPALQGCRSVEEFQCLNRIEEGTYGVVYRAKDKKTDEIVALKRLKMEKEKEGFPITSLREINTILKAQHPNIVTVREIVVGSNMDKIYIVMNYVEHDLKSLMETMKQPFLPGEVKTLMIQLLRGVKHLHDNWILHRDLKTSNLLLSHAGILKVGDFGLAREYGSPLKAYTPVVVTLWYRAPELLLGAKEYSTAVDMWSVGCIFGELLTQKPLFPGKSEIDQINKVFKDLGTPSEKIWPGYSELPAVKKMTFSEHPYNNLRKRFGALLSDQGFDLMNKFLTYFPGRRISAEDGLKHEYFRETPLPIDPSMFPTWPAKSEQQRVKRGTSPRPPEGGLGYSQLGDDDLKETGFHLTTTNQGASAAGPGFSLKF

CCC(=O)N[C@H]1CC[C@@H](C(=O)N(C)c2ccc(-c3nc4ccccc4o3)cc2)C1 [BI 99179]
residual activity [1]: 77%
residual activity [2]: 100%
residual activity [3]: 86%
residual activity [4]: 56%
residual activity [5]: 90%
residual activity [6]: 100%
residual activity [7]: 94%
residual activity [8]: 100%
residual activity [9]: 100%
residual activity [10]: 88%
residual activity [11]: 100%
residual activity [12]: 100%
residual activity [13]: 100%
residual activity [14]: 83%
residual activity [15]: 93%
residual activity [16]: 95%
residual activity [17]: 93%
residual activity [18]: 96%
residual activity [19]: 95%
residual activity [20]: 100%
residual activity [21]: 100%
residual activity [22]: 87%
residual activity [23]: 100%
residual activity [24]: 97%
residual activity [25]: 87%
residual activity [26]: 77%
residual activity [27]: 94%
residual activity [28]: 85%
inhibition [29]: 3.86%
residual activity [30]: 84%
residual activity [31]: 100%
residual activity [32]: 94%
residual activity [33]: 66%
residual activity [34]: 78%
residual activity [35]: 72%
residual activity [36]: 100%
residual activity [37]: 100%
residual activity [38]: 98%
residual activity [39]: 100%
residual activity [40]: 100%
residual activity [41]: 100%
inhibition [42]: 1.55%
residual activity [43]: 85%
residual activity [44]: 100%
residual activity [45]: 99%

CCC(=O)N[C@@H]1CC[C@H](C(=O)N(C)c2ccc(-c3nc4ccccc4o3)cc2)C1 [BI 99990]
residual activity [1]: 76%
residual activity [2]: 100%
residual activity [3]: 100%
residual activity [4]: 100%
residual activity [5]: 100%
residual activity [6]: 100%
residual activity [7]: 100%
residual activity [8]: 100%
residual activity [9]: 100%
residual activity [10]: 74%
residual activity [11]: 46%
residual activity [12]: 100%
residual activity [13]: 100%
residual activity [14]: 100%
residual activity [15]: 100%
residual activity [16]: 100%
residual activity [17]: 100%
residual activity [18]: 100%
residual activity [19]: 90%
residual activity [20]: 95%
residual activity [21]: 100%
residual activity [22]: 96%
residual activity [23]: 100%
residual activity [24]: 100%
residual activity [25]: 91%
residual activity [26]: 100%
residual activity [27]: 100%
residual activity [28]: 100%
inhibition [29]: 10.1%
residual activity [30]: 100%
residual activity [31]: 100%
residual activity [32]: 100%
residual activity [33]: 100%
residual activity [34]: 97%
residual activity [35]: 77%
residual activity [36]: 100%
residual activity [37]: 100%
residual activity [38]: 98%
residual activity [39]: 100%
residual activity [40]: 100%
residual activity [41]: 100%
inhibition [42]: 0.247%
residual activity [43]: 100%
residual activity [44]: 90%
residual activity [45]: 100%
